Peptide text beside a SMILES is read from it. * marks the point of attachment. X1 = O=C(CCS*)Nc1ccn([C@@H]2O[C@H](CO)[C@@H](O)C2(F)F)c(=O)n1
Columns and labels:
Caco-2 = assay: Antiproliferative activity against human Caco2 cells after 48 hrs by sulforhodamine B assay; assay type: functional, cell-based; settings: Caco-2, 48 h
HT-29 [1] = assay: Growth inhibition of human HT-29 cells after 48 hrs by sulforhodamine B assay relative to control; assay type: functional
MKN-28 = assay: Antiproliferative activity against human MKN28 cells after 48 hrs by sulforhodamine B assay; assay type: functional, cell-based; settings: MKN-28, 48 h
HT-29 [2] = assay: Antiproliferative activity against human HT-29 cells after 48 hrs by sulforhodamine B assay; assay type: functional, cell-based; settings: for IC50: HT-29, 48 h
[3] = Half life in pH 7.4 phosphate buffered saline by HPLC method; assay type: physicochemical
[4] = Prodrug conversion in pH 7.4 phosphate buffered saline assessed as gemcitabine release by HPLC method

Compound | IC50 (Caco-2) [µM] | IC50 (MKN-28) [µM] | IC50 (HT-29 [2]) [µM] | half-life [3] [h] | growth inhibition (GI) (HT-29 [1]) [%] | Drug metabolism [4] | Activity (HT-29 [2])
Nc1ccn([C@@H]2O[C@H](CO)[C@@H](O)C2(F)F)c(=O)n1 [GEMCITABINE] | > 100 | > 100 | > 100 | – | 30 | – | –
CC[C@H](C)[C@H](NC(=O)[C@H](CCCCN)NC(=O)[C@@H](NC(=O)[C@H](CCC(N)=O)NC(=O)[C@H](CCCNC(=N)N)NC(=O)[C@@H](N)CSSCCC(=O)Nc1ccn([C@@H]2O[C@H](CO)[C@@H](O)C2(F)F)c(=O)n1)[C@@H](C)CC)C(=O)N[C@@H](Cc1c[nH]c2ccccc12)C(=O)N[C@@H](Cc1ccccc1)C(=O)N[C@@H](CCC(N)=O)C(=O)N[C@@H](CC(N)=O)C(=O)N[C@@H](CCCNC(=N)N)C(=O)N[C@@H](CCCNC(=N)N)C(=O)N[C@@H](CCSC)C(=O)N[C@@H](CCCCN)C(=O)N[C@@H](Cc1c[nH]c2ccccc12)C(=O)N[C@@H](CCCCN)C(=O)N[C@@H](CCCCN)C(=O)O | 67.1 | 47 | 47.3 | 230 | – | Metabolite detected | Dose-dependent effect

Further lines, with some results ahead:

IC50 (Caco-2) [µM] | IC50 (MKN-28) [µM] | IC50 (HT-29 [2]) [µM] | half-life [3] [h] | Compound | growth inhibition (GI) (HT-29 [1]) [%] | Drug metabolism [4] | Activity (HT-29 [2])
> 100 | > 100 | > 100 | – | CC[C@H](C)[C@H](NC(=O)[C@H](CCCCN)NC(=O)[C@@H](NC(=O)[C@H](CCC(N)=O)NC(=O)[C@H](CCCNC(=N)N)NC(=O)[C@@H](N)CS)[C@@H](C)CC)C(=O)N[C@@H](Cc1c[nH]c2ccccc12)C(=O)N[C@@H](Cc1ccccc1)C(=O)N[C@@H](CCC(N)=O)C(=O)N[C@@H](CC(N)=O)C(=O)N[C@@H](CCCNC(=N)N)C(=O)N[C@@H](CCCNC(=N)N)C(=O)N[C@@H](CCSC)C(=O)N[C@@H](CCCCN)C(=O)N[C@@H](Cc1c[nH]c2ccccc12)C(=O)N[C@@H](CCCCN)C(=O)N[C@@H](CCCCN)C(=O)O | – | – | –
> 100 | > 100 | > 100 | – | H-CLLIILRRRIRKQAHAHSK-OH | – | – | –
> 100 | 20.7 | 45.2 | 42 | CC[C@H](C)[C@H](NC(=O)[C@H](CCCNC(=N)N)NC(=O)[C@H](CCCNC(=N)N)NC(=O)[C@H](CCCNC(=N)N)NC(=O)[C@H](CC(C)C)NC(=O)[C@@H](NC(=O)[C@@H](NC(=O)[C@H](CC(C)C)NC(=O)[C@H](CC(C)C)NC(=O)[C@@H](N)CSSCCC(=O)Nc1ccn([C@@H]2O[C@H](CO)[C@@H](O)C2(F)F)c(=O)n1)[C@@H](C)CC)[C@@H](C)CC)C(=O)N[C@@H](CCCNC(=N)N)C(=O)N[C@@H](CCCCN)C(=O)N[C@@H](CCC(N)=O)C(=O)N[C@@H](C)C(=O)N[C@@H](Cc1cnc[nH]1)C(=O)N[C@@H](C)C(=O)N[C@@H](Cc1cnc[nH]1)C(=O)N[C@@H](CO)C(=O)N[C@@H](CCCCN)C(=O)O (H-C(X1)LLIILRRRIRKQAHAHSK-OH) | – | Metabolite detected | Dose-dependent effect
